# In PubChem BioAssay (NCI):
#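 In this assay, cells in 96-well plates receive the compound at five concentrations for 48 hours. Endpoints are linearly interpolated between the surrounding concentrations. The concentration for 50% growth inhibition is given as GI50. Definition used: TGI = concentration required for complete inhibition of growth.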
# Experiments:
# Test in all cases: NCI anticancer screen, dose series, 48 h
# SN12C renal = test system: SN12C renal
# RPMI-8226 leukemia = test system: RPMI-8226 leukemia
# HCC-2998 colon = test system: HCC-2998 colon
# TK-10 renal = test system: TK-10 renal
# HL-60(TB) leukemia = test system: HL-60(TB) leukemia
# SK-OV-3 ovarian = test system: SK-OV-3 ovarian
# HS 578T breast = test system: HS 578T breast
# NCI/ADR-RES ovarian = test system: NCI/ADR-RES ovarian
# MCF7 breast = test system: MCF7 breast
# M14 melanoma = test system: M14 melanoma
Structure (SMILES),TGI (SN12C renal) [µM],TGI (RPMI-8226 leukemia) [µM],TGI (HCC-2998 colon) [µM],TGI (TK-10 renal) [µM],TGI (HL-60(TB) leukemia) [µM],GI50 (SK-OV-3 ovarian) [µM],TGI (SK-OV-3 ovarian) [µM],GI50 (HS 578T breast) [µM],TGI (HS 578T breast) [µM],GI50 (SN12C renal) [µM],GI50 (NCI/ADR-RES ovarian) [µM],TGI (NCI/ADR-RES ovarian) [µM],GI50 (RPMI-8226 leukemia) [µM],GI50 (HCC-2998 colon) [µM],GI50 (MCF7 breast) [µM],TGI (MCF7 breast) [µM],GI50 (M14 melanoma) [µM],TGI (M14 melanoma) [µM],GI50 (TK-10 renal) [µM],GI50 (HL-60(TB) leukemia) [µM]
O=[N+]([O-])C1C2C=CC(C2)[C@H]1c1ccc(Cl)cc1Cl (stereo partly specified),> 100,69.1,> 100,> 100,53.2,–,–,–,–,–,–,–,–,–,–,–,–,–,–,–
C/C(=N\n1c(N)c(C#N)c(-c2ccc(Cl)cc2)c(C#N)c1=O)c1ccncc1,41.1,69.7,> 100,38.9,–,10.1,64.6,6.4,75.8,9.88,5.28,31.3,7.96,> 100,5.7,93.9,> 100,> 100,6.04,–
CCC(=O)c1cc([N+](=O)[O-])c(Br)s1,24.1,89,31,28.1,–,19.4,33.9,19.5,85,8.3,6.15,24.1,20.2,15.2,2.89,12.3,3.13,10.6,13.8,–
O=C(O)[C@@H]1CCCC[C@@H]1C(=O)N(C1CCCCC1)C1CCCCC1,> 100,> 100,> 100,> 100,> 100,–,> 100,–,–,–,–,–,–,–,–,–,–,> 100,–,–
CC1(C)OC(COCCOCCCCCO)C(COCCOCCCCCO)O1 (stereo unspecified),> 100,> 100,> 100,> 100,–,–,> 100,–,–,–,–,–,–,–,–,–,–,> 100,–,–
CC12OC(C(=O)C13CCC3)C1C(=O)c3ccccc3C(=O)C12 (stereo unspecified),> 100,> 100,–,> 100,> 100,> 100,> 100,> 100,> 100,76.7,> 100,> 100,26.5,–,> 100,> 100,> 100,> 100,92.5,52
COc1ccc(/C=C(/C(=O)n2cnnn2)c2cc(OC)c(OC)c(OC)c2)cc1,> 100,> 100,–,> 100,> 100,5.26,> 100,4.07,> 100,5.15,3.87,> 100,3.68,–,2.63,> 100,2.58,> 100,7.59,2.77
COc1cc2cccc(N=Cc3c(Br)ccc(OC)c3OC(C)C)c2cc1OC,> 100,63.7,> 100,> 100,–,–,> 100,–,–,–,–,–,–,–,–,–,–,> 100,–,–
Cc1nnc(N=Nc2c(O)[nH]c3ccccc23)n1N,> 100,> 100,> 100,> 100,> 100,–,> 100,–,–,–,–,–,–,–,–,–,–,> 100,–,–
NS(=O)(=O)c1ccc(NC(=O)c2cccn3c(=O)c4ccccc4nc23)cc1,> 100,> 100,–,> 100,> 100,–,> 100,–,–,–,–,–,–,–,–,–,–,> 100,–,–
C[N+](C)=c1nc(N2CCOCC2)ss1,> 100,–,> 100,> 100,> 100,–,> 100,–,–,–,–,–,–,–,–,–,–,> 100,–,–
O=c1oc2ccc(F)cc2c(=O)n1-c1ccc(Br)cc1F,7.6,1.05,10.8,18,–,0.427,6.25,0.621,7.87,0.376,0.85,8.9,0.27,2.9,2.04,> 29.5,0.434,5.08,4.22,–
COC(=O)c1cc2c3c(ccc2[nH]1)N(C(=O)c1cc2c4c(ccc2[nH]1)N(C(=O)c1cc2c5c(ccc2[nH]1)N(C(N)=O)CC5)CC4)CC3,49.4,> 100,> 100,47,> 70.5,–,8.02,–,–,–,–,–,–,–,–,–,–,> 21.3,–,–
c1ccc(NC[Si]23OCCN(CCO2)CCO3)cc1,> 100,> 100,> 100,> 100,–,–,> 100,–,–,–,–,–,–,–,–,–,–,–,–,–
COc1nc2c(c(O)c(C)c(=O)n2OC2OC(COC(C)=O)C(OC(C)=O)C(OC(C)=O)C2OC(C)=O)c(=O)n1C (stereo unspecified),> 100,–,> 100,> 100,–,–,–,–,–,–,–,–,–,–,–,–,–,> 100,–,–
COc1ccc(CC2=NCCc3cc(OC)c(OC)cc32)cc1Br,> 100,–,35.6,> 100,21.7,–,> 100,–,–,–,–,–,–,–,–,–,–,–,–,–
COc1ccccc1/C=C\C(=O)c1ccccc1,22.1,24.7,19.9,25.2,45.6,13.7,26.5,–,–,9.36,4.38,24.3,2.8,7.34,1.92,12.6,12.5,25.6,12.5,5.06
C=C(CNCCc1ccc(O)cc1)[C@@H]1CC[C@]2(CO)CC[C@]3(C)[C@H](CC[C@@H]4[C@@]5(C)CCC(N)C(C)(C)[C@@H]5CC[C@]43C)[C@@H]12 (stereo partly specified),3.02,4.04,3.3,3.22,–,1.84,3.34,–,–,1.56,–,–,1.44,1.66,–,–,1.75,3.33,1.73,–
C[C@@]12CCCC(=O)N1[C@@H](CO)C(c1ccccc1)O2 (stereo partly specified),> 100,> 100,–,> 100,–,–,–,–,–,–,–,–,–,–,–,–,–,–,–,–
C=CC1=CC(C)C[C@]1(O)C(=O)OC (stereo partly specified),–,< 0.01,–,–,–,–,> 100,–,–,> 100,–,–,–,> 100,–,–,> 100,–,> 100,> 100
NC(N)=N/N=C/c1c(-c2ccc(Cl)c([N+](=O)[O-])c2)nc2n1CCS2,9.04,10.9,–,–,6.27,24.7,75.1,–,–,2.29,15.8,32.7,3.66,–,–,–,15.4,29.1,–,2.34
